Data taken from US8192962B2, “Processes for detecting toxic substances” (Daikin Industries, Ltd., priority 2001, dated 2012).

What was measured:
[1] = tested on: DNA repair protein genes; experiment: DNA chip mRNA expression in yeast, DNA repair protein genes (Table 3); type: cell-based, Saccharomyces cerevisiae S288C; settings: incubated two hours, concentrations as in the 1st table
In short: (§1)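 Value is the scanned fluorescence intensity ratio of exposed versus chemical-free cells. Log-phase S288C yeast in YPD at 25° C. received one toxic substance for two hours, dosed to slow growth without killing; Cy3/Cy5-labeled cDNA from oligo-dT-purified mRNA was hybridized to a whole-genome chip at 65° C.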

[2] = tested on: Detoxification protein genes; experiment: DNA chip mRNA expression in yeast, detoxification protein genes (Table 8); type: cell-based, Saccharomyces cerevisiae S288C
In short: as §1

## S=C([S-])NCCNC(=S)[S-].[Zn+2] [(11), zinc N,N′-ethylenebis(dithiocarbamate)]
[1]; yeast gene YAL015C
  The level of expressed mRNA in the presence of chemical substance/The level of expressed mRNA in the absence of chemical substance: 1.4
[1]; yeast gene YAR007C
  The level of expressed mRNA in the presence of chemical substance/The level of expressed mRNA in the absence of chemical substance: 0.9
[1]; yeast gene YBL019W
  The level of expressed mRNA in the presence of chemical substance/The level of expressed mRNA in the absence of chemical substance: 1.0
[1]; yeast gene YBR073W
  The level of expressed mRNA in the presence of chemical substance/The level of expressed mRNA in the absence of chemical substance: 0.5
[1]; yeast gene YBR272C
  The level of expressed mRNA in the presence of chemical substance/The level of expressed mRNA in the absence of chemical substance: 1.1
[1]; yeast gene YCR014C
  The level of expressed mRNA in the presence of chemical substance/The level of expressed mRNA in the absence of chemical substance: 0.8
[1]; yeast gene YDL017W
  The level of expressed mRNA in the presence of chemical substance/The level of expressed mRNA in the absence of chemical substance: 0.8
[1]; yeast gene YDL059C
  The level of expressed mRNA in the presence of chemical substance/The level of expressed mRNA in the absence of chemical substance: 2.0
[1]; yeast gene YDL200C
  The level of expressed mRNA in the presence of chemical substance/The level of expressed mRNA in the absence of chemical substance: 1.2
[1]; yeast gene YDR054C
  The level of expressed mRNA in the presence of chemical substance/The level of expressed mRNA in the absence of chemical substance: 1.9
[1]; yeast gene YDR369C
  The level of expressed mRNA in the presence of chemical substance/The level of expressed mRNA in the absence of chemical substance: 1.1
[1]; yeast gene YEL019C
  The level of expressed mRNA in the presence of chemical substance/The level of expressed mRNA in the absence of chemical substance: 1.2
[1]; yeast gene YEL037C
  The level of expressed mRNA in the presence of chemical substance/The level of expressed mRNA in the absence of chemical substance: 1.0
[1]; yeast gene YER162C
  The level of expressed mRNA in the presence of chemical substance/The level of expressed mRNA in the absence of chemical substance: 0.5
[1]; yeast gene YFL014W
  The level of expressed mRNA in the presence of chemical substance/The level of expressed mRNA in the absence of chemical substance: 5.0
[1]; yeast gene YGL058W
  The level of expressed mRNA in the presence of chemical substance/The level of expressed mRNA in the absence of chemical substance: 0.8
[1]; yeast gene YGL091C
  The level of expressed mRNA in the presence of chemical substance/The level of expressed mRNA in the absence of chemical substance: 2.1
[1]; yeast gene YGL127C
  The level of expressed mRNA in the presence of chemical substance/The level of expressed mRNA in the absence of chemical substance: 1.0
[1]; yeast gene YGL163C
  The level of expressed mRNA in the presence of chemical substance/The level of expressed mRNA in the absence of chemical substance: 0.4
[1]; yeast gene YGL249W
  The level of expressed mRNA in the presence of chemical substance/The level of expressed mRNA in the absence of chemical substance: 0.6
[1]; yeast gene YGR180C
  The level of expressed mRNA in the presence of chemical substance/The level of expressed mRNA in the absence of chemical substance: 1.0
[1]; yeast gene YGR231C
  The level of expressed mRNA in the presence of chemical substance/The level of expressed mRNA in the absence of chemical substance: 1.6
[1]; yeast gene YGR258C
  The level of expressed mRNA in the presence of chemical substance/The level of expressed mRNA in the absence of chemical substance: 0.3
[1]; yeast gene YHR164C
  The level of expressed mRNA in the presence of chemical substance/The level of expressed mRNA in the absence of chemical substance: 0.6
[1]; yeast gene YIL036W
  The level of expressed mRNA in the presence of chemical substance/The level of expressed mRNA in the absence of chemical substance: 1.2
[1]; yeast gene YIL072W
  The level of expressed mRNA in the presence of chemical substance/The level of expressed mRNA in the absence of chemical substance: 1.8
[1]; yeast gene YIL143C
  The level of expressed mRNA in the presence of chemical substance/The level of expressed mRNA in the absence of chemical substance: 1.5
[1]; yeast gene YIL153W
  The level of expressed mRNA in the presence of chemical substance/The level of expressed mRNA in the absence of chemical substance: 1.0
[1]; yeast gene YIR002C
  The level of expressed mRNA in the presence of chemical substance/The level of expressed mRNA in the absence of chemical substance: 0.8
[1]; yeast gene YJL026W
  The level of expressed mRNA in the presence of chemical substance/The level of expressed mRNA in the absence of chemical substance: 1.3
[1]; yeast gene YJR046W
  The level of expressed mRNA in the presence of chemical substance/The level of expressed mRNA in the absence of chemical substance: 0.6
[1]; yeast gene YJR052W
  The level of expressed mRNA in the presence of chemical substance/The level of expressed mRNA in the absence of chemical substance: 1.1
[1]; yeast gene YKL145W
  The level of expressed mRNA in the presence of chemical substance/The level of expressed mRNA in the absence of chemical substance: 1.8
[1]; yeast gene YLR103C
  The level of expressed mRNA in the presence of chemical substance/The level of expressed mRNA in the absence of chemical substance: 0.9
[1]; yeast gene YLR233C
  The level of expressed mRNA in the presence of chemical substance/The level of expressed mRNA in the absence of chemical substance: 0.8
[1]; yeast gene YLR288C
  The level of expressed mRNA in the presence of chemical substance/The level of expressed mRNA in the absence of chemical substance: 1.4
[1]; yeast gene YML032C
  The level of expressed mRNA in the presence of chemical substance/The level of expressed mRNA in the absence of chemical substance: 1.0
[1]; yeast gene YML058W
  The level of expressed mRNA in the presence of chemical substance/The level of expressed mRNA in the absence of chemical substance: 3.3
[1]; yeast gene YMR035W
  The level of expressed mRNA in the presence of chemical substance/The level of expressed mRNA in the absence of chemical substance: 1.5
[1]; yeast gene YMR072W
  The level of expressed mRNA in the presence of chemical substance/The level of expressed mRNA in the absence of chemical substance: 1.9
[1]; yeast gene YMR096W
  The level of expressed mRNA in the presence of chemical substance/The level of expressed mRNA in the absence of chemical substance: 1.5
[1]; yeast gene YMR284W
  The level of expressed mRNA in the presence of chemical substance/The level of expressed mRNA in the absence of chemical substance: 1.1
[1]; yeast gene YNL213C
  The level of expressed mRNA in the presence of chemical substance/The level of expressed mRNA in the absence of chemical substance: 1.5
[1]; yeast gene YNL250W
  The level of expressed mRNA in the presence of chemical substance/The level of expressed mRNA in the absence of chemical substance: 1.0
[1]; yeast gene YNL261W
  The level of expressed mRNA in the presence of chemical substance/The level of expressed mRNA in the absence of chemical substance: 0.8
[1]; yeast gene YNL312W
  The level of expressed mRNA in the presence of chemical substance/The level of expressed mRNA in the absence of chemical substance: 1.4
[1]; yeast gene YOL043C
  The level of expressed mRNA in the presence of chemical substance/The level of expressed mRNA in the absence of chemical substance: 1.2
[1]; yeast gene YOR005C
  The level of expressed mRNA in the presence of chemical substance/The level of expressed mRNA in the absence of chemical substance: 1.2
[1]; yeast gene YOR386W
  The level of expressed mRNA in the presence of chemical substance/The level of expressed mRNA in the absence of chemical substance: 1.4
[1]; yeast gene YPL022W
  The level of expressed mRNA in the presence of chemical substance/The level of expressed mRNA in the absence of chemical substance: 0.8
[1]; yeast gene YPL164C
  The level of expressed mRNA in the presence of chemical substance/The level of expressed mRNA in the absence of chemical substance: 1.1
[1]; yeast gene YPL194W
  The level of expressed mRNA in the presence of chemical substance/The level of expressed mRNA in the absence of chemical substance: 0.9
[1]; yeast gene YPR025C
  The level of expressed mRNA in the presence of chemical substance/The level of expressed mRNA in the absence of chemical substance: 0.9
[2]; yeast gene YBL064C
  The level of expressed mRNA in the presence of chemical substance/The level of expressed mRNA in the absence of chemical substance: 2.9
[2]; yeast gene YBR008C
  The level of expressed mRNA in the presence of chemical substance/The level of expressed mRNA in the absence of chemical substance: 9.4
[2]; yeast gene YBR145W
  The level of expressed mRNA in the presence of chemical substance/The level of expressed mRNA in the absence of chemical substance: 1.1
